Data reported in US9403812B2, “Triazole derivatives as Wnt signaling pathway inhibitors” (OSLO UNIVERSITY HOSPITAL, HF, priority 2010, dated 2016).

Key:
STF/REN HEK293 cells = assay: Wnt3a-induced ST-Luc/Renilla luciferase reporter assay in STF/REN HEK293 cells; format: cell-based; details: Homo sapiens, 24 hours compound in 50% Wnt3a conditioned media, average of multiple experiments
Procedure: HEK293 cells (80,000 cells per well) were seeded in 96-well plates coated with poly-L lysine. 24 hours after seeding, the cells were incubated for an additional 24 hours with various compound concentrations in 50% Wnt3a containing conditioned media (from L Wnt3a-expressing cells (ATCC)). A minimum of three replicates was used for each sample. After compound exposure, the cells were lysed and the firefly luciferase and Renilla activities were measured on a GloMax® 96 Microplate Luminometer with Dual Injectors (Promega).
XLfit (idbs) was used to determine the IC50 values in inhibition experiments. The data were fit to the following formula:
IC50: Langmuir Binding Isotherm: fit=((A+(B*x))+(((C−B)*(1−exp((−1*D)*x)))/D)) res=(y−fit)
All values shown are average values from multiple experiments.

[1] = Stability in human liver microsomes; format: in vitro ADME; details: both sexes, pooled human liver microsomes, 0.5 mg/mL protein, 3 μM compound, pH 7.4, 37° C., NADPH, read-out: T ½ human liver microsomes
Procedure: Pooled human or rat liver microsomes (pooled male and female) were prepared and stored at −80° C. prior to use. […] The final incubation volume was 25 μL. A control incubation was included for each compound tested in which 0.1M phosphate buffer (pH 7.4) was added instead of NADPH (minus NADPH). Two control compounds were included with each species. All incubations were performed singularly for each test compound.
The reactions were stopped by the addition of 50 μL methanol containing internal standard at the appropriate time points. The incubation plates were centrifuged at 2,500 rpm for 20 mins at 4° C. to precipitate the protein.
Following protein precipitation, the sample supernatants were combined in cassettes of up to 4 compounds and analysed using Cyprotex generic LC-MS/MS conditions. […] The time point at which 30-50% of parent had degraded could then be investigated at 3 different levels of metabolite profiling and/or identification.
From a plot of ln peak area ratio (compound peak area/internal standard peak area) against time, the gradient of the line is determined. Subsequently, half-life and intrinsic clearance are calculated using the equations below: Elimination rate constant (k)=(−gradient)
[formula] [formula] • where V=Incubation volume (μL/mg microsomal protein).

DLD-1 cells = assay: IncuCyte cell proliferation assay, DLD-1; format: cell-based; details: 0.1, 1, 5 μmol/L
Procedure: (§1) All cells were purchased from ATCC (American Type Culture Collection) and maintained according to the supplier's recommendations. Cells used were RKO, HCT-15, WiDr, HT29, DLD-1, COLO320DM and COLO205 cells. 1,000 cells were seeded in 96-well plates with the recommended media. […] All samples were assessed in a minimum of six replicates. Plates were incubated in an IncuCyte™ (Essen BioScience) inside a cell culture incubator. Images were captured every second hour to monitor cell proliferation. Mutations in the Adenomatouse Polyposis Coli (APC) gene, which occur in most colorectal cancers (CRC), lead to ineffective degradation of β-catenin and aberrant up-regulation of Wnt signaling. As a result, CRC cells may undergo cell cycle arrest as a result of antagonized canonical Wnt. Therefore, the kinetics of cell proliferation was monitored in selected Wnt responsive CRC cell lines by using an IncuCyte life tracking system.

HCT-15 cells = assay: IncuCyte cell proliferation assay, HCT-15; format: cell-based; details: 0.1, 1, 5 μmol/L
Procedure: as §1

COLO320DM cells = assay: IncuCyte cell proliferation assay, COLO320DM; format: cell-based; details: 0.1, 1, 5 μmol/L
Procedure: as §1

COLO205 cells = assay: IncuCyte cell proliferation assay, COLO205; format: cell-based; details: 0.1, 1, 5 μmol/L
Procedure: as §1

AXIN2 = assay: Immunostaining of AXIN2 in SW480 cells; format: cell-based; details: 0.5 μmol/L, 18 hours, confocal microscopy
Procedure: (§2) After incubation, the cells were fixed in 4% PFA in PBS for 10 minutes. Immunostaining was performed as described in standard protocols. Primary antibodies used were β-catenin (610153, BD Transduction Laboratories™) or AXIN2 (76G6, Cell Signaling Technology). Secondary antibodies used were DyLight549 (555) donkey-anti-mouse and Cy2-donkey-anti-rabbit (both Jackson ImmunoResearch, 1:1000). The samples were imaged using a Zeiss Axiovert 200M Fluorescence/Live cell Imaging Microscope at 40 times magnification. A Zeiss LSM780 at 63 times magnification was used for confocal microscopy

WiDr cells = assay: IncuCyte cell proliferation assay, WiDr; format: cell-based; details: 0.1, 1, 5 μmol/L
Procedure: as §1

PARP1 = target: T1, PARP1 (Homo sapiens, UniProt P09874); assay: Chemiluminescent Assay Kit, PARP1; format: biochemical
T1 construct: purchased BPS Bioscience, Nordic Biosite 80551

RKO cells = assay: IncuCyte cell proliferation assay, RKO; format: cell-based; details: RKO (Wnt-independent control, wild type APC); 0.1, 1, 5 μmol/L
Procedure: as §1

HT29 cells = assay: IncuCyte cell proliferation assay, HT29; format: cell-based; details: 0.1, 1, 5 μmol/L
Procedure: as §1

β-catenin = assay: Immunostaining of β-catenin in SW480 cells; format: cell-based; details: 500 nmol/L, 18 hours, immunofluorescence
Procedure: as §2

T1 sequence (P09874 whole entry): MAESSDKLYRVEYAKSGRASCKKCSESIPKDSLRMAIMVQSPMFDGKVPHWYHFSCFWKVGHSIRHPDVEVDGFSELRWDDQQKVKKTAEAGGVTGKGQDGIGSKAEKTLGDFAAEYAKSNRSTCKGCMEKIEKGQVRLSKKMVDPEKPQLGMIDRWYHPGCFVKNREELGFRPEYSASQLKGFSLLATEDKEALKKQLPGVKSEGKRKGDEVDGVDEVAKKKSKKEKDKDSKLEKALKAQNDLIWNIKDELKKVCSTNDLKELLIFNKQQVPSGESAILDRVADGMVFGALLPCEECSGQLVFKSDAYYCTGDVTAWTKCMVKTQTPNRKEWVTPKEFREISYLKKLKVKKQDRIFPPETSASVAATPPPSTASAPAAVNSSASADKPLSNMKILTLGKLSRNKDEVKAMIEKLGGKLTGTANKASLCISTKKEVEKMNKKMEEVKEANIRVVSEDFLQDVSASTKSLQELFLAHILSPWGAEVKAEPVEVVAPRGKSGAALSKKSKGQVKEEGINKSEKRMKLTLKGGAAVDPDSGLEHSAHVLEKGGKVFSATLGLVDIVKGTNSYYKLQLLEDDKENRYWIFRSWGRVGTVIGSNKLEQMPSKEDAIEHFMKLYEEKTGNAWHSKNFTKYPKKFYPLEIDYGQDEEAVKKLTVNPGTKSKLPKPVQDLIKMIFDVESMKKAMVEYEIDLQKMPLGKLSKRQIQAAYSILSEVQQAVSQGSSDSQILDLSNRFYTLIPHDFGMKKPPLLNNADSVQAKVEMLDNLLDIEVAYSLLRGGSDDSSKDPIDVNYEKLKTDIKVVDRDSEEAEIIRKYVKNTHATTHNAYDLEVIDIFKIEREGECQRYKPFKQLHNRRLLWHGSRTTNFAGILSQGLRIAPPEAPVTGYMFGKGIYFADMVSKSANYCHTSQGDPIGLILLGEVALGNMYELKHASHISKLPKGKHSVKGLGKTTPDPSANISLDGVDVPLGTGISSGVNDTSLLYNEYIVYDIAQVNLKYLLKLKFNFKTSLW

Row | half-life at 3 μM [1] | Structure (SMILES) | IC50 (STF/REN HEK293 cells) | other results
1 | 48 min | COc1cc(-c2nnc(/C=C/c3nnc(-c4ccc(F)cc4)n3-c3ccccc3Cl)o2)ccn1 [(6)] | 1200 nM | 
2 |  | COc1cc(C(=O)NNC(=O)/C=C/c2nnc(-c3ccc(F)cc3)n2-c2ccccc2Cl)ccn1 [(7)] | > 10000 nM | 
3 | 128 min | Oc1cc(-c2nnc(/C=C/c3nnc(-c4ccc(F)cc4)n3-c3ccccc3Cl)o2)ccn1 [(8)] | 6300 nM | 
4 | 162 min | COc1cc(-c2nnc(/C=C/c3nnc(-c4ccc(Cl)cc4Cl)n3-c3ccccc3Cl)o2)ccn1 [Compound (1), 4-(5-((E)-2-(5-(2,4-dichlorophenyl)-4-(2-chlorophenyl)-4H-1,2,4-triazol-3-yl)vinyl)-1,3,4-oxadiazol-2-yl)-2-methoxypyridine] | 940 nM | 
5 | 224 min | COc1cc(-c2nnc(/C=C/c3nnc(-c4ccc(S(C)(=O)=O)cc4)n3-c3ccccc3Cl)o2)ccn1 [Compound (2), 4-(5-((E)-2-(4-(2-chlorophenyl)-5-(4-(methylsulfonyl)phenyl)-4H-1,2,4-triazol-3-yl)vinyl)-1,3,4-oxadiazol-2-yl)-2-methoxypyridine] | 280 nM | 
6 | 37.6 min | COc1cc(-c2nnc(/C=C/c3nnc(-c4ccncc4)n3-c3ccccc3Cl)o2)ccn1 [Compound (3), 4-(4-(2-chlorophenyl)-5-((E)-2-(5-(2-methoxypyridin-4-yl)-1,3,4-oxadiazol-2-yl)vinyl)-4H-1,2,4-triazol-3-yl)pyridine] | 190 nM | 
7 | 44.9 min | COc1cc(-c2nnc(/C=C/c3nnc(-c4ccc(Cl)cn4)n3-c3ccccc3Cl)o2)ccn1 [Compound (4), 5-chloro-2-(4-(2-chlorophenyl)-5-((E)-2-(5-(2-methoxypyridin-4-yl)-1,3,4-oxadiazol-2-yl)vinyl)-4H-1,2,4-triazol-3-yl)pyridine] | 240 nM | 
8 | 5.41 min | COc1cc(-c2nnc(/C=C/c3nnc(-c4nc(C)no4)n3-c3ccccc3Cl)o2)ccn1 [Compound (5), 4-(5-((E)-2-(4-(2-chlorophenyl)-5-(3-methyl-1,2,4-oxadiazol-5-yl)-4H-1,2,4-triazol-3-yl)vinyl)-1,3,4-oxadiazol-2-yl)-2-methoxypyridine] | > 10000 nM | 
9 |  | CS(=O)(=O)c1ccc(-c2nnc(/C=C/c3nnc(-c4ccc(C#N)cc4)o3)n2-c2ccccc2Cl)nc1 [Compound (10), (E)-4-(5-(2-(4-(2-chlorophenyl)-5-(5-(methylsulfonyl)pyridin-2-yl)-4H-1,2,4-triazol-3-yl)vinyl)-1,3,4-oxadiazol-2-yl)benzonitrile] | 50 nM | cell growth inhibition (DLD-1 cells): dose-dependent growth inhibition; cell growth inhibition (HCT-15 cells): dose-dependent growth inhibition; cell growth inhibition (COLO320DM cells): dose-dependent growth inhibition; cell growth inhibition (COLO205 cells): dose-dependent growth inhibition; levels of cytoplasmic AXIN2 (AXIN2): significantly increased; cell growth inhibition (WiDr cells): dose-dependent growth inhibition; inhibition of PARP1 (PARP1; at doses up to 20 μmol/L): no inhibition; IC50 (PARP1; in vitro, table, read-out: IC50 value, PARP): > 20000 nM; cell growth inhibition (RKO cells): did not; cell growth inhibition (HT29 cells): dose-dependent growth inhibition; nuclear β-catenin (β-catenin): strong reduction; total β-catenin (β-catenin): general reduction
10 | 59.6 min | COc1cc(-c2nnc(/C=C/c3nnc(-c4ccncn4)n3-c3ccccc3Cl)o2)ccn1 [Compound (11), 4-(4-(2-chlorophenyl)-5-((E)-2-(5-(2-methoxypyridin-4-yl)-1,3,4-oxadiazol-2-yl)vinyl)-4H-1,2,4-triazol-3-yl)pyrimidine] | 80 nM | 
11 | 37.1 min | COc1cc(-c2nnc(/C=C/c3nnc(-c4ccc(S(C)(=O)=O)cn4)n3-c3ccccc3Cl)o2)ccn1 [Compound (12), 2-(4-(2-chlorophenyl)-5-((E)-2-(5-(2-methoxypyridin-4-yl)-1,3,4-oxadiazol-2-yl)vinyl)-4H-1,2,4-triazol-3-yl)-5-(methylsulfonyl)pyridine] | 70 nM | 
12 | 212 min | CCOc1ccc(-c2nnc(/C=C/c3nnc(-c4ccnc(OC)c4)o3)n2-c2ccccc2Cl)nc1 [Compound (13), 2-(4-(2-chlorophenyl)-5-((E)-2-(5-(2-methoxypyridin-4-yl)-1,3,4-oxadiazol-2-yl)vinyl)-4H-1,2,4-triazol-3-yl)-5-ethoxypyridine] | 110 nM | 
13 | 371 min | CS(=O)(=O)c1ccc(-c2nnc(/C=C/c3nnc(-c4ccc(Cl)cc4)o3)n2-c2ccccc2Cl)nc1 [Compound (14), 2-(4-(2-chlorophenyl)-5-((E)-2-(5-(4-chlorophenyl)-1,3,4-oxadiazol-2-yl)vinyl)-4H-1,2,4-triazol-3-yl)-5-(methylsulfonyl)pyridine] | 40 nM | 
14 |  | CS(=O)(=O)c1ccc(-c2nnc(C#Cc3nnc(-c4ccc(C#N)cc4)o3)n2-c2ccccc2Cl)nc1 [Compound (33), 4-{5-[4-(2-Chloro-phenyl)-5-(5-methanesulfonyl-pyridin-2-yl)-4H-[1,2,4]triazol-3-ylethynyl]-[1,3,4]oxadiazol-2-yl}-benzonitrile] | 3600 nM | 
15 |  | CS(=O)(=O)c1ccc(-c2nnc(/C=C/c3nnc(-c4ccc(C#N)cc4)o3)n2-c2ccc(OC(F)(F)F)cc2Cl)nc1 [Compound (56)] | 390 nM | 
16 |  | N#Cc1ccc(-c2nnc(/C=C/c3nnc(-c4ccc(OCC(F)(F)F)cn4)n3-c3ccccc3Cl)o2)cc1 [Compound (57), 4-[5-(2-{4-(2-Chloro-phenyl)-5-[5-(2,2,2-trifluoro-ethoxy)-pyridin-2-yl]-4H-[1,2,4]triazol-3-yl}-vinyl)-[1,3,4]oxadiazol-2-yl]-benzonitrile] | 100 nM | 
17 |  | CS(=O)(=O)c1ccc(-c2nnc(/C(F)=C(\F)c3nnc(-c4ccc(C#N)cc4)o3)n2-c2ccccc2Cl)nc1 [Compound (58), 4-(5-{2-[4-(2-Chloro-phenyl)-5-(5-methanesulfonyl-pyridin-2-yl)-4H-[1,2,4]triazol-3-yl]-1,2-difluoro-vinyl}-[1,3,4]oxadiazol-2-yl)-benzonitrile] | > 10000 nM | 
